Read-outs that look alike come from different tables or passages of the source.

Experiment [1] relates to CD95L. In words: Activation-induced CD95L expression, semi-quantitative RT-PCR and quantitative PCR, Jurkat cells. Format: cell-based, human. The conditions noted are these: for reduction of CD95L induction, quantitative PCR: plate-bound anti-CD3 (TCR triggering).
The subject of experiment [2] is Jurkat J16-145 cells. As to the kind of experiment: Activation-induced (PMA or anti-CD3) ROS generation, DCFDA oxidation by FACS. It counts as cell-based, human. Background: In flow cytometry, cells or beads pass a laser one at a time.
Experiment [3] has as its system CD95L. In words: Anti-CD3 induced CD95L expression in primary human T cells (PCR). The conditions noted are these: day 6 T cells. Format: cell-based.
A further experiment deals with IL-2, IL-4, or TNF-alpha. In words: Cytokine expression in activated T cells (RT-PCR). It counts as cell-based, human.
Experiment [4] deals with primary human T cells (day 6 T cells). As to the kind of experiment: Anti-CD3 induced ROS generation (DCFDA) in primary human T cells. It counts as cell-based. To be noted: preactivated primary human T cells (day 6); anti-CD3 30 min.
Experiment [5] deals with CD95 receptor. As to the kind of experiment: Apoptosis induced via direct stimulation of the CD95 receptor, Jurkat cells. It counts as cell-based, human. The conditions noted are these: data not shown.
In experiment [6] the test system is CD95 receptor. In words: Apoptosis induced by direct stimulation of the CD95 receptor, primary T cells. Format: cell-based, human. To be noted: data not shown.
In experiment [7] the test system is complex I. To be noted: isolated mitochondria; reference 6; cited from earlier work.
Experiment [8] has as its system primary human T cells (day 6 T cells). As to the kind of experiment: AICD in primary human T cells, specific cell death. It counts as cell-based. To be noted: plate-bound anti-CD3 24 h. The method, then: FIG. 9. Primary human T cells depend on complex I-originated activation-induced ROS for CD95L expression and AICD. […] Cells were stained with DCFDA and MFI was measured by FACS. […] Next, RNA was isolated, reverse-transcribed, and amplified using CD95L- and actin-specific primers. C, T cells were transfected with 900 nM of scrambled- (ctr) or two different NDUFAF1-siRNA oligonucleotides (#1, #2). After 48 h, RNA was isolated, reverse-transcribed, and amplified using NDUFAF1- and actin-specific primers. D, 72 h after transfection with 900 nM of scrambled- (ctr) or NDUFAF1-siRNA oligonucleotides (#1, #2) primary human T were stimulated by plate-bound anti-CD3 antibodies for 30 min and oxidative signal was determined as in (A). […] (ii) For 1 h (F), to detect changes in CD95L expression (left panel semi quantitative PCR; right panel quantitative PCR). (iii) For 24 h (G) to assessed AICD by a drop in FCS/SSC index. Insert show T cells cotreated with or without CD95L neutralizing antibody (results were recalculated to “specific cell death”). H, Schematic diagram of TCR induced oxidative signalling.
Isolation of human peripheral T cells. […]
(§1) Assessment of cell death. […] Cell death was assessed by a drop in the forward-to-side-scatter (FSC/SSC) profile in comparison to living cells and recalculated to “specific cell death” as described (25).

The test system of experiment [9] is Jurkat J16-145 cells. In words: Activation-induced T cell death (AICD), specific cell death by FSC/SSC, Jurkat cells. To be noted: PMA/ionomycin or plate-bound anti-CD3, 24 h. It counts as cell-based, human. The method, then: as §1
Experiment [10] relates to complex I. The conditions noted are these: references 6, 18; cited from earlier work.
The subject of experiment [11] is Jurkat J16-145 cells. As to the kind of experiment: Cellular ATP determination. Format: cell-based, human. To be noted: high concentrations of inhibitors, 2 h.
Where [12] appears, read: Jurkat J16-145, anti-CD3 or PMA/ionomycin, 1 h.

As for `CN(C)CCCn1cc(C2=C(c3c[nH]c4ccccc34)C(=O)NC2=O)c2ccccc21` [BIM, bisindolylmaleimide I], the “effect on activation-induced CD95L expression (RT-PCR), in words” value (shortened to “effect … (RT-PCR), in words”) in the experiment with CD95L [1] is reported as “dose dependent inhibition of CD95L expression”.

For `c1ccc2c(c1)[I+]c1ccccc1-2` [DPI], in the experiment on Jurkat J16-145 cells [2] (Jurkat J16-145, PMA 30 min), the “effect on PMA-induced ROS generation / oxidative signal, in words” value is recorded as “only a moderate effect”.

Consider `O=C(CC(=O)C(F)(F)F)c1cccs1` [TTFA, 1,1,1-thenoyl trifluoroacetone], for which, in the experiment on Jurkat J16-145 cells [2], the “effect on activation-induced (TCR- and PMA-induced) ROS generation, in words” value is on record as “no effect or increased the oxidative signal”.

`COc1cc(C(C)=O)ccc1O` [apocynin]: in the experiment with Jurkat J16-145 cells [2] (Jurkat J16-145, PMA 30 min), the “effect on PMA-induced ROS generation / oxidative signal, in words” value was “only a moderate effect”.

As for `CN(C)C(=N)N=C(N)N` [metformin], in the experiment on CD95L [3] (plate-bound anti-CD3 1 h), the “inhibition of induction of CD95L expression” value was “up to 70%”. In addition, the “expression of cytokines such as IL-2, IL-4, or TNF-alpha” value with IL-2, IL-4, or TNF-alpha was “can be reduced”. Also, the “effect on activation-induced (anti-CD3) oxidative signal, in words” value in [4] is reported as “inhibits the anti-CD3 induced oxidative signal”. The “apoptosis induced via direct stimulation of the CD95 receptor” value with CD95 receptor [5] is given as “not affected”. Besides, the “apoptosis induced by direct stimulation of the CD95 receptor” value with CD95 receptor [6] is “not affected”. In addition, the “reduction of CD95L expression, quantitative PCR” value in the experiment on CD95L [1] (Jurkat J16-145, PMA/ionomycin, 1 h) is 50%. Also, the “effect … (RT-PCR), in words” value with CD95L [1] (setting [12]) was “inhibition of CD95L expression”. Besides, the “reduction of CD95L induction, quantitative PCR” value (“reduction of CD95L induction” for short) in the experiment on CD95L [1] (Jurkat J16-145, 1 h) is “up to 80%”. Further, the “inhibition of complex I-induced ROS production” value in the experiment with complex I [7] was “efficiently inhibit”. The “effect on AICD (cell death), in words” value in experiment [8] is “nearly completely inhibited”. Further, the “effect on AICD, in words” value in the experiment with Jurkat J16-145 cells [9] is reported as “drastically reduced AICD”. The “inhibition of complex I” value with complex I [10] is recorded as “mildly inhibits”. The “effect on PMA-induced ROS generation / oxidative signal, in words” value with Jurkat J16-145 cells [2] is “diminished oxidative signal”.

For the compound `CC[C@H]1/C=C/C=C/C[C@@H](C)[C@H](O)[C@@](C)(O)C(=O)[C@@H](C)[C@H](O)[C@@H](C)C(=O)[C@@H](C)[C@H](O)[C@@H](C)/C=C/C(=O)O[C@@H]2[C@H](C)[C@H](CC1)O[C@]1(CC[C@H](C)[C@H](C[C@@H](C)O)O1)[C@H]2C` [oligomycin], the “ATP depletion compared to rotenone and piericidin A” value in the experiment on Jurkat J16-145 cells [11] is “more efficient ATP depletion”. In the experiment on CD95L [1] (Jurkat J16-145, 1 h), the “reduction of CD95L induction” value is listed as “no effect”. The “effect on activation-induced (TCR- and PMA-induced) ROS generation, in words” value with Jurkat J16-145 cells [2] (Jurkat J16-145, anti-CD3 or PMA, 30 min) was “no effect or increased the oxidative signal”.

On to `C/C=C(\C)[C@H](O)[C@H](C)/C=C(C)/C=C/C/C(C)=C/Cc1nc(OC)c(OC)c(O)c1C` [piericidin A], for which the “effect … (RT-PCR), in words” value with CD95L [1] (setting [12]) is “abolished CD95L transcription almost completely”. In addition, the “effect on activation-induced (TCR- and PMA-induced) ROS generation, in words” value in the experiment with Jurkat J16-145 cells [2] is reported as “able to inhibit”.

Turning to `C=C(C)[C@H]1Cc2c(ccc3c2O[C@@H]2COc4cc(OC)c(OC)cc4[C@@H]2C3=O)O1` [rotenone], in the experiment with CD95L [3] (anti-CD3 1 h), the “effect on CD95L expression, in words” value is “exclusively inhibited”. For the same compound, the “effect on activation-induced (anti-CD3) oxidative signal, in words” value in [4] is reported as “exclusively inhibited”. Further, the “effect … (RT-PCR), in words” value in the experiment on CD95L [1] (setting [12]) is reported as “abolished CD95L transcription almost completely”. The “reduction of CD95L induction” value with CD95L [1] (Jurkat J16-145, 1 h) is recorded as “more than 80%”. For the same compound, in the experiment with Jurkat J16-145 cells [2], the “effect on activation-induced (TCR- and PMA-induced) ROS generation, in words” value is “able to inhibit”.

Source of the values: patent US8563500B2, “Methods and compounds for treating diseases caused by reactive oxygen species” (Deutsches Krebsforschungszentrum Stiftung des Offentlichen …, priority 2007, dated 2013).
